Drawing on the supplement of paper PMC10307832, this text covers relative viability for 1 cell line.

Holding throughout (test): relative viability (nuclei count vs DMSO), 5 days (fraction); higher = more cells survive
Compound in the experiment “AZD6482 + Vorinostat”: Cc1cc([C@@H](C)Nc2ccccc2C(=O)O)c2nc(N3CCOCC3)cc(=O)n2c1 [AZD6482] + O=C(CCCCCCC(=O)Nc1ccccc1)NO [Vorinostat] (partner 1 µM)
In outline: (§1)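 Relative viability equals treated-well nuclei counts divided by vehicle-well nuclei counts. Counts came from 4× images of lung cancer cell lines grown in 1536-well plates for 5 days after pin-tool dosing on the day after seeding. Dosing used one drug alone or a fixed anchor-drug dose plus five library-drug doses (not always all listed) in √10 steps, and values are medians of duplicate plates.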

Compound in experiment [1]: COc1cc2nc(N3CCCN(C)CC3)nc(NC3CCN(Cc4ccccc4)CC3)c2cc1OC + CS(=O)(=O)N1CCN(Cc2cc3nc(-c4cccc5[nH]ncc45)nc(N4CCOCC4)c3s2)CC1 [Pictilisib] (partner 1 µM)
In outline: as §1

Compound in the experiment “AZD6482 + Lapatinib”: Cc1cc([C@@H](C)Nc2ccccc2C(=O)O)c2nc(N3CCOCC3)cc(=O)n2c1 [AZD6482] + CS(=O)(=O)CCNCc1ccc(-c2ccc3ncnc(Nc4ccc(OCc5cccc(F)c5)c(Cl)c4)c3c2)o1 [Lapatinib] (partner 2 µM)
In outline: as §1

Compound in the experiment “AZD6482 + Foretinib”: Cc1cc([C@@H](C)Nc2ccccc2C(=O)O)c2nc(N3CCOCC3)cc(=O)n2c1 [AZD6482] + COc1cc2c(Oc3ccc(NC(=O)C4(C(=O)Nc5ccc(F)cc5)CC4)cc3F)ccnc2cc1OCCCN1CCOCC1 [Foretinib] (partner 0.25 µM)
In outline:
as §1

For UMC-11, the relative viability with AZD6482 + Vorinostat (first compound 0.08 µM) is 0.326; with AZD6482 + Vorinostat (first compound 0.253 µM), 0.347; with AZD6482 + Vorinostat (first compound 0.8 µM), 0.384; with AZD6482 + Vorinostat (first compound 2.53 µM), 0.341; with AZD6482 + Vorinostat (first compound 8 µM) it was 0.331; in experiment [1] (first compound 0.2 µM) it was 0.84. The relative viability in experiment [1] (first compound 0.6325 µM) came to 0.805; in experiment [1] (first compound 2 µM) it was 0.84; in experiment [1] (first compound 6.325 µM), 0.681; with AZD6482 + Lapatinib (first compound 0.08 µM) it was 0.875; with AZD6482 + Lapatinib (first compound 0.253 µM), 0.902; in the experiment with AZD6482 + Lapatinib (first compound 0.8 µM), 1.03. The relative viability with AZD6482 + Lapatinib (first compound 2.53 µM) worked out at 0.602; with AZD6482 + Lapatinib (first compound 8 µM), 1.34; with AZD6482 + Foretinib (first compound 0.08 µM), 1.01; with AZD6482 + Foretinib (first compound 0.253 µM), 0.988; in the experiment with AZD6482 + Foretinib (first compound 0.8 µM), 0.997; with AZD6482 + Foretinib (first compound 2.53 µM) it was 0.815. For the same cell line, the relative viability in the experiment with AZD6482 + Foretinib (first compound 8 µM) is 1.13.
